Results on 13 compounds are retold here after US20140206682A1, “COMPOUNDS AND COMPOSITIONS AS PDGFR KINASE INHIBITORS” (NOVARTIS PHARMACEUTICALS UK LIMITED, priority 2011, published 2014).

The IC50 is the concentration at which inhibition is half-maximal.

The first assay relates to PDGFR. Put plainly: Rat A10 cell proliferation assay. As to conditions: Table 1; Rat A10 cells, recombinant rat PDGF-BB, CellTiter-Glo after 68 hours. The assay is classed as cell-based. The procedure, abridged: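 Rat A10 cells in DMEM with 1% FBS and 10 ng/mL rat PDGF-BB, preincubated 4 h at 37 °C, then exposed to 3-fold serially diluted compound for 68 h. Viability/proliferation read as CellTiter-Glo luminescence.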
For orientation: In ATP-based viability assays light output follows the ATP content of the culture.
Take `Cc1ccc2ncc(C(=O)Nc3cc(C(=O)N[C@@H]4c5ccccc5C[C@@H]4O)ccc3F)n2c1` [F17, N-(2-fluoro-5-{[(1R,2S)-2-hydroxy-2,3-dihydro-1H-inden-1-yl]carbamoyl}phenyl)-6-methylimidazo[1,2-a]pyridine-3-carboxamide]: the IC50 worked out at 60 nM.
Same read-out and setting: for `Cc1ccc(C(=O)NC(CO)c2ccccc2)cc1NC(=O)c1cnc2ccccn12` (stereo not shown) [F2, N-{5-[(2-hydroxy-1-phenylethyl)carbamoyl]-2-methylphenyl}imidazo[1,2-a]pyridine-3-carboxamide] the value was 146 nM.
As to `Cn1nccc1-c1ccn2c(C(=O)Nc3cc(C(=O)NC4Cc5ccccc5C4O)ccc3F)cnc2c1` (stereo not shown) [F14, N-{2-fluoro-5-[(1-hydroxy-2,3-dihydro-1H-inden-2-yl)carbamoyl]phenyl}-7-(1-methyl-1H-pyrazol-5-yl)imidazo[1,2-a]pyridine-3-carboxamide], the IC50 is 32 nM.
Same read-out and setting: for `O=C(NC1Cc2ccccc2C1O)c1ccc(F)c(NC(=O)c2cnc3cc(Br)ccn23)c1` (stereo not shown) [F10, 7-bromo-N-{2-fluoro-5-[(1-hydroxy-2,3-dihydro-1H-inden-2-yl)carbamoyl]phenyl}imidazo[1,2-a]pyridine-3-carboxamide] the value was 130 nM.
As for `COC[C@H](NC(=O)c1ccc(F)c(NC(=O)c2cnc3ccccn23)c1)[C@@H](O)c1ccccc1` [F118, N-(2-fluoro-5-{[(1S,2S)-1-hydroxy-3-methoxy-1-phenylpropan-2-yl]carbamoyl}phenyl)imidazo[1,2-a]pyridine-3-carboxamide], the IC50 came to 41 nM.
Take `O=C(N[C@H]1c2ccccc2C[C@H]1O)c1ccc(F)c(NC(=O)c2cnc3ccccn23)c1` [F6, N-(2-fluoro-5-{[(1S,2R)-2-hydroxy-2,3-dihydro-1H-inden-1-yl]carbamoyl}phenyl)imidazo[1,2-a]pyridine-3-carboxamide]: the IC50 was determined as 86 nM.
Still for that read-out and setting: for `Cn1nccc1-c1ccn2c(C(=O)Nc3cc(C(=O)N[C@H](CO)[C@H](O)c4ccccc4)ccc3F)cnc2c1` [F130, N-(5-{[(1R,2R)-1,3-dihydroxy-1-phenylpropan-2-yl]carbamoyl}-2-fluorophenyl)-7-(1-methyl-1H-pyrazol-5-yl)imidazo[1,2-a]pyridine-3-carboxamide] the value was 104 nM; for `Cn1nccc1-c1ccn2c(C(=O)Nc3cc(C(=O)N[C@@H]4Cc5ccccc5[C@@H]4O)ccc3F)cnc2c1` [F15, N-(2-fluoro-5-{[(1S,2R)-1-hydroxy-2,3-dihydro-1H-inden-2-yl]carbamoyl}phenyl)-7-(1-methyl-1H-pyrazol-5-yl)imidazo[1,2-a]pyridine-3-carboxamide], 44 nM.

Still in this assay, the particulars now being: Table 2; Rat A10 cells, recombinant rat PDGF-BB, CellTiter-Glo after 68 hours.
With `CCC[C@@H](CO)NC(=O)c1cccc(NC(=O)c2cnc3ccccn23)c1` [F57, N-(3-{[(2S)-1-hydroxypentan-2-yl]carbamoyl}phenyl)imidazo[1,2-a]pyridine-3-carboxamide], the half-inhibitory concentration (IC50) is 522 nM.
Same read-out and setting: for `Cc1ccc2ncc(C(=O)Nc3cc(C(=O)N[C@H]4c5ccccc5C[C@H]4O)ccc3F)n2c1` [F36, N-(2-fluoro-5-{[(1S,2R)-2-hydroxy-2,3-dihydro-1H-inden-1-yl]carbamoyl}phenyl)-6-methylimidazo[1,2-a]pyridine-3-carboxamide] the value was 234 nM; for `O=C(N[C@H]1CCCC[C@H]1O)c1ccc(F)c(NC(=O)c2cnc3ccccn23)c1` [F50, N-(2-fluoro-5-{[(1S,2R)-2-hydroxycyclohexyl]carbamoyl}phenyl)imidazo[1,2-a]pyridine-3-carboxamide], 373 nM.
Same read-out and setting: for `O=C(N[C@H]1CC[C@H](O)CC1)c1ccc(F)c(NC(=O)c2cnc3ccccn23)c1` [F93, N-{2-fluoro-5-[(4-hydroxycyclohexyl)carbamoyl]phenyl}imidazo[1,2-a]pyridine-3-carboxamide] the value was 1140 nM; for `O=C(N[C@H]1c2ccccc2C[C@H]1O)c1ccc(F)c(NC(=O)c2cnc3ccc(COCC(F)(F)F)cn23)c1` [F70, N-(2-fluoro-5-{[(1S,2R)-2-hydroxy-2,3-dihydro-1H-inden-1-yl]carbamoyl}phenyl)-6-[(2,2,2-trifluoroethoxy)methyl]imidazo[1,2-a]pyridine-3-carboxamide], 2090 nM.
